From patent US12110293B2, “Substituted triazolo quinoxaline derivatives” (GRÜNENTHAL GMBH, priority 2018, dated 2024)

Biological target: T1, glucocorticoid receptor (Homo sapiens, UniProt P04150)
T1 construct: expressed in transfected cells
T1 sequence (P04150 524-758 limits assumed): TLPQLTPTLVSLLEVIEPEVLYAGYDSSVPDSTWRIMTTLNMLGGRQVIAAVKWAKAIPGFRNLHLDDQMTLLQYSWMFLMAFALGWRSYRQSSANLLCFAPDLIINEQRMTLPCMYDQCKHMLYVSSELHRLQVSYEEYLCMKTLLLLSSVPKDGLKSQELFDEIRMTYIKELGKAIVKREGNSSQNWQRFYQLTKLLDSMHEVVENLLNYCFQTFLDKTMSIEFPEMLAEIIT
Test: Agonistic mode of action on the glucocorticoid receptor (CHO-Gal4/GR luciferase reporter cell line)
Format: cell-based
Conditions: range class observed in the agonistic assay or the antagonistic assay (CHO-Gal4/GR reporter cells); table does not say which mode applies per example
Outline: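 CHO cells stably carrying GAL4 DBD–GR ligand-binding-domain fusion and GAL4-UAS firefly luciferase reporter, 5000 cells/well grown 24 h, then compounds added in Opti-MEM at 8 half-log concentrations from 10 μM to 0.003 μM (0.5% DMSO), quadruplicates. Agonist-induced luminescence read on FLIPR Tetra; EC50 calculated.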

Compound | IC50 or EC50 (agonist or antagonist mode not specified)
Cc1c(-c2ccc(C#N)c3[nH]ccc23)c(F)cc2c1-n1c(C)nnc1C(C)(C)N2 [Example 534, 4-(7-Fluoro-1,4,4,9-tetramethyl-5H-[1,2,4]triazolo[4,3-a]quinoxalin-8-yl)-1H-indole-7-carbonitrile] | 100 to 1000 nM
COc1cc2c(c(F)c1-c1cccc3c(C)c[nH]c13)-n1c(C)nnc1C(C)(C)N2 [Example 266, 9-Fluoro-7-methoxy-1,4,4-trimethyl-8-(3-methyl-1H-indol-7-yl)-5H-[1,2,4]triazolo[4,3-a]quinoxaline] | 100 to 1000 nM
Cc1cc2c(c(C)c1-c1cc(F)cc3c(C)c[nH]c13)-n1c(C)nnc1C(C)(C)N2 [Example 341, 8-(5-Fluoro-3-methyl-1H-indol-7-yl)-1,4,4,7,9-pentamethyl-5H-[1,2,4]triazolo[4,3-a]quinoxaline] | 100 to 1000 nM
Cc1nnc2n1-c1c(cc(F)c(-c3cccc4c3cnn4C3CC3)c1F)NC2(C)C [Example 243, 8-(1-Cyclopropyl-1H-indazol-4-yl)-7,9-difluoro-1,4,4-trimethyl-5H-[1,2,4]triazolo[4,3-a]quinoxaline] | 100 to 1000 nM
CC#Cc1c[nH]c2c(-c3c(F)cc4c(c3F)-n3c(CC)nnc3C(C)(C)N4)cccc12 [Example 13, 1-ethyl-7,9-difluoro-4,4-dimethyl-8-(3-(prop-1-yn-1-yl)-1H-indol-7-yl)-4,5-dihydro-[1,2,4]triazolo[4,3-a]quinoxaline] | 100 to 1000 nM
Cc1c(-c2cc(C(F)(F)F)cc3[nH]ccc23)c(F)cc2c1-n1c(C)nnc1C(C)(C)N2 [Example 470, 7-Fluoro-1,4,4,9-tetramethyl-8-[6-(trifluoromethyl)-1H-indol-4-yl]-5H-[1,2,4]triazolo[4,3-a]quinoxaline] | 100 to 1000 nM
Cc1nnc2n1-c1c(cc(F)c(-c3cccc4c3ccn4S(C)(=O)=O)c1F)NC2(C)C [Example 22, 7,9-difluoro-1,4,4-trimethyl-8-(1-(methylsulfonyl)-1H-indol-4-yl)-4,5-dihydro-[1,2,4]triazolo[4,3-a]quinoxaline] | 100 to 1000 nM
Cc1c(-c2cc(F)cc3c2ccn3CCO)ccc2c1-n1c(C)nnc1C(C)(C)N2 [Example 451, 2-[6-Fluoro-4-(1,4,4,9-tetramethyl-5H-[1,2,4]triazolo[4,3-a]quinoxalin-8-yl)-1H-indol-1-yl]-ethanol] | 100 to 1000 nM
Cc1nnc2n1-c1c(ccc(-c3cccc4c3ccn4S(C)(=O)=O)c1C(F)F)NC2(C)C [Example 528, 9-(Difluoro-methyl)-1,4,4-trimethyl-8-(1-methylsulfonyl-1H-indol-4-yl)-5H-[1,2,4]triazolo [4,3-a]quinoxaline] | 100 to 1000 nM
Cc1c(-c2cccc3[nH]ccc23)c(F)cc2c1-n1c(C)nnc1C(C)(C)N2 [Example 399, 7-Fluoro-8-(1H-indol-4-yl)-1,4,4,9-tetramethyl-5H-[1,2,4]triazolo[4,3-a]quinoxaline] | < 100 nM
COC(=O)CCn1ccc2c(-c3c(F)cc4c(c3F)-n3c(C)nnc3C(C)(C)N4)cccc21 [Example 219, 3-[4-(7,9-Difluoro-1,4,4-trimethyl-5H-[1,2,4]triazolo[4,3-a]quinoxalin-8-yl)-1H-indol-1-yl]-propionic acid methyl ester] | 1000 to 15000 nM
CCc1nnc2n1-c1c(cc(F)c(-c3cccc4cc[nH]c34)c1F)NC2(C)C [Example 11, 1-ethyl-7,9-difluoro-8-(1H-indol-7-yl)-4,4-dimethyl-4,5-dihydro-[1,2,4]triazolo[4,3-a]quinoxaline] | 100 to 1000 nM
Cc1nnc2n1-c1c(cc(F)c(-c3cccc4c3ccn4S(=O)(=O)C3CCCC3)c1F)NC2(C)C [Example 201, 8-[1-(Cyclopentylsulfonyl)-1H-indol-4-yl]-7,9-difluoro-1,4,4-trimethyl-5H-[1,2,4]triazolo[4,3-a]quinoxaline] | 1000 to 15000 nM
Cc1nnc2n1-c1c(cc(F)c(-c3cc(C#N)cc4[nH]ccc34)c1C(F)(F)F)NC2(C)C [Example 479, 4-[7-Fluoro-1,4,4-trimethyl-9-(trifluoromethyl)-5H-[1,2,4]triazolo[4,3-a]quinoxalin-8-yl]-1H-indole-6-carbonitrile] | 100 to 1000 nM
CC#Cc1c[nH]c2c(-c3c(F)cc4c(c3F)-n3c(CC)nnc3C(C)(C)N4)cc(F)cc12 [Example 16, 1-ethyl-7,9-difluoro-8-(5-fluoro-3-(prop-1-yn-1-yl)-1H-indol-7-yl)-4,4-dimethyl-4,5-dihydro-[1,2,4]triazolo[4,3-a]quinoxaline] | 100 to 1000 nM
Cc1nnc2n1-c1c(cc(F)c(-c3cc(F)cc4[nH]ccc34)c1C(F)F)NC2(C)C [Example 466, 9-(Difluoro-methyl)-7-fluoro-8-(6-fluoro-1H-indol-4-yl)-1,4,4-trimethyl-5H-[1,2,4]triazolo [4,3-a]quinoxaline] | < 100 nM
Cc1c(-c2cccc3c(C)c[nH]c23)c(OC(F)F)cc2c1-n1c(C)nnc1C(C)(C)N2 [Example 360, 7-(Difluoro-methoxy)-1,4,4,9-tetramethyl-8-(3-methyl-1H-indol-7-yl)-5H-[1,2,4]triazolo[4,3-a]quinoxaline] | 100 to 1000 nM
Cc1nnc2n1-c1c(cc(F)c(-c3cc(F)cc4cc[nH]c34)c1C(F)(F)F)NC2(C)C [Example 516, 7-Fluoro-8-(5-fluoro-1H-indol-7-yl)-1,4,4-trimethyl-9-(trifluoro-methyl)-5H-[1,2,4]triazolo[4,3-a] quinoxaline] | 100 to 1000 nM
CCn1ncc2c(-c3c(F)cc4c(c3F)-n3c(C)nnc3C(C)(C)N4)cccc21 [Example 236, 8-(1-Ethyl-1H-indazol-4-yl)-7,9-difluoro-1,4,4-trimethyl-5H-[1,2,4]triazolo[4,3-a]quinoxaline] | 100 to 1000 nM
Cc1nnc2n1-c1c(cc(F)c(-c3cccc4c3ccn4CCN(C)C)c1F)NC2(C)C [Example 383, [2-[4-(7,9-Difluoro-1,4,4-trimethyl-5H-[1,2,4]triazolo[4,3-a]quinoxalin-8-yl)-1H-indol-1-yl]-ethyl]-dimethyl-amine] | 1000 to 15000 nM
